Where two headings read alike, the source gives them in different places.
Key:
EZH2 (rPRC2) = EZH2 (rPRC2) (Homo sapiens, UniProt Q15910); test: EZH2 assay: rPRC2, biotinylated oligonucleosomes, 3H SAM methyl transfer (FlashPlate scintillation); assay type: biochemical; settings: biotinylated oligonucleosome substrate
Protocol: Assays were carried out by mixing rPRC2 together with biotinylated oligonucleosome substrates in the presence of the radio-labeled enzyme co-factor, S-adenosyl-1-methionine (^3H SAM) (Perkin Elmer) and monitoring the enzymatically mediated transfer of tritiated methyl groups from ^3H SAM to histone lysine residues. The amount of resulting tritiated methyl histone product was measured by first capturing the biotinylated oligonucleosomes in streptavidin (SAV) coated FlashPlates (Perkin Elmer), followed by a wash step to remove un-reacted ^3H SAM, and then counting on a TopCount NXT 384 well plate scintillation counter (Perkin Elmer). The final assay conditions for EZH2 were as follows: 50 mM Tris Buffer pH 8.5, 1 mM DTT, 69 μM Brij-35 detergent, 5.0 mM MgCl2, 0.1 mg/mL BSA, 0.2 μM ^3H SAM, 0.2 μM biotinylated oligonucleosomes, 3.6 μM H3K27 mc3 peptide and 2 nM EZH2.
A 12.5 μL volume of the HMT enzyme, H3K27me3 peptide and oligonucleosome substrate in assay buffer was added to each well of the assay plate using a Multidrop Combi (ThermoFisher). Compounds were pre-incubated with the enzyme for 20 min, followed by initiation of the methyltransferase reaction by addition of 12.5 μL of ^3H SAM in assay buffer (final volume=25 μL). The final concentrations of compounds ranged from a top default concentration of 80 μM down to 0.16 μM in ten 2-fold dilution steps. Reactions were carried out for 60 minutes and quenched with 20 μL per well of 1.96 mM SAH, 50 mM Tris pH 8.5, 200 mM EDTA. Stopped reactions were transferred to SAV coated Flashplates (Perkin Elmer), incubated for 120 min, washed with a plate washer, and then read on the TopCount NXT (1.0 min/well) to measure the amount of methyl histone product formed during the reaction.

Y641N EZH2 = Y641N EZH2 (Homo sapiens, UniProt Q15910, Y641N); test: Y641N EZH2 assay: as EZH2 assay, with reconstituted H3K27Me2 oligonucleosomes as substrate; assay type: biochemical
Chain of Y641N EZH2 (Q15910 whole entry Y641N): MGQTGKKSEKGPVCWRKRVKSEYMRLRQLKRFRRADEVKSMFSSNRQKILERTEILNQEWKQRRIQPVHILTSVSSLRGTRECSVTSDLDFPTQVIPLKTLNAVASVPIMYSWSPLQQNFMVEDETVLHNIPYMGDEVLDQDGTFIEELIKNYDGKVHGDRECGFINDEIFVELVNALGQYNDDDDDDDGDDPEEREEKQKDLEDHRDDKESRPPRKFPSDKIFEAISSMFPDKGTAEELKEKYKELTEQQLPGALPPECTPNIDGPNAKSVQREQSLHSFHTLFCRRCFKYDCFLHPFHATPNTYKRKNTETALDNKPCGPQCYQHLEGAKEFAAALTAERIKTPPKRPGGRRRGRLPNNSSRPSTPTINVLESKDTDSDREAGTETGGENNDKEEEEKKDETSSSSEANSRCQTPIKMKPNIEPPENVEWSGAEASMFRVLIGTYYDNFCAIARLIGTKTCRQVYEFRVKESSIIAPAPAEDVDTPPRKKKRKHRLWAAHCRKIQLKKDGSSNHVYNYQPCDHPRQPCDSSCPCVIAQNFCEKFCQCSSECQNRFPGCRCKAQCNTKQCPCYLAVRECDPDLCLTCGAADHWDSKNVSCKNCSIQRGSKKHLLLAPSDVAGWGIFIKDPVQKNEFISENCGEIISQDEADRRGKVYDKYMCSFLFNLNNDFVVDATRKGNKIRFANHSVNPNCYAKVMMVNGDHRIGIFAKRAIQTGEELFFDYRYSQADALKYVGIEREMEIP
Chain of Y641N EZH2 (O75530 whole entry partner): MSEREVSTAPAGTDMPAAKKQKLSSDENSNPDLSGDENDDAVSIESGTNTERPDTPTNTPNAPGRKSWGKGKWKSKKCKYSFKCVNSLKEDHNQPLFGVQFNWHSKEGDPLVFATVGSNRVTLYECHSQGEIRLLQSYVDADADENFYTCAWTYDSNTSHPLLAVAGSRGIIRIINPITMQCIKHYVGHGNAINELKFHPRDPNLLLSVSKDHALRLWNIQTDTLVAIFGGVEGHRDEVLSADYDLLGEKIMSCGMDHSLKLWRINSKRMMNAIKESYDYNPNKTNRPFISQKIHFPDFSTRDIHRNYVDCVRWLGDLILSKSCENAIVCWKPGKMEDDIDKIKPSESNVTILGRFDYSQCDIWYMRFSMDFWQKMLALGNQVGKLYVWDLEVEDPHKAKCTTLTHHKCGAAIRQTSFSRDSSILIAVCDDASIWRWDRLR
Chain of Y641N EZH2 (Q15022 whole entry partner): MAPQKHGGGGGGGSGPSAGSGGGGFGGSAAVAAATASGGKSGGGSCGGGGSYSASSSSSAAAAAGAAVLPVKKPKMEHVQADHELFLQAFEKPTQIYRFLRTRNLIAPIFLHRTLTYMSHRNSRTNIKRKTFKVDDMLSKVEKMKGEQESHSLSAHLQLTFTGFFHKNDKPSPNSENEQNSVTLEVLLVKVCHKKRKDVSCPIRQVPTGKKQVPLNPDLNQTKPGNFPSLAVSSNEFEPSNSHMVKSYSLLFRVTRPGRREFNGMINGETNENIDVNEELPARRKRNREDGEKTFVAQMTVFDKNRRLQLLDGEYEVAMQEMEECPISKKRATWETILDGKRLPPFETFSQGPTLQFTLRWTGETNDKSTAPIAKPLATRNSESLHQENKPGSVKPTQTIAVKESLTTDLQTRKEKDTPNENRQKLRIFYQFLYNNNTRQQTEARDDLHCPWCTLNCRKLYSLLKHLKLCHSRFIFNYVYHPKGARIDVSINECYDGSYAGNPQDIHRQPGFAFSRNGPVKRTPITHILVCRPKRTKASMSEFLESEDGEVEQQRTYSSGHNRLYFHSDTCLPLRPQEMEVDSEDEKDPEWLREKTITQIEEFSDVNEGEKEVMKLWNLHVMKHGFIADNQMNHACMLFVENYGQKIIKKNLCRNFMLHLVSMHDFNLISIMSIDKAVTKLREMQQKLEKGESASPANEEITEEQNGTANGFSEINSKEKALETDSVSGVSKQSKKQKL

[1] = EZH2 IC50, wild-type EZH2 (rPRC2)
[2] = Y641N EZH2 IC50, Y641N mutant EZH2, H3K27Me2 oligonucleosome substrate
[3] = wild-type EZH2 (rPRC2), read-out: EZH2 IC50
[4] = Y641N mutant EZH2, H3K27Me2 oligonucleosome substrate, read-out: Y641N EZH2 IC50

Chain of EZH2 (rPRC2) (Q15910 whole entry): as the sequence (Q15910 whole entry Y641N) above, with N641Y counted along it
Chain of EZH2 (rPRC2) (O75530 whole entry partner): as the sequence (O75530 whole entry partner) above
Chain of EZH2 (rPRC2) (Q15022 whole entry partner): as the sequence (Q15022 whole entry partner) above

Compound	IC50 (EZH2 (rPRC2); [1]) [µM]	IC50 (Y641N EZH2; [2]) [µM]	IC50 (EZH2 (rPRC2); [3]) [µM]	IC50 (Y641N EZH2; [4]) [µM]	also measured
COc1cc(C)[nH]c(=O)c1CNC(=O)c1c(C)n(C(C)C2COCCO2)c2ccccc12 (centres unmarked) [Compound 348, 1-(1-(1,4-dioxan-2-yl)ethyl)-N-((4-methoxy-6-methyl-2-oxo-1,2-dihydropyridin-3-yl)methyl)-2-methyl-1H-indole-3-carboxamide]	< 0.1	< 0.1			
COc1cc(C)[nH]c(=O)c1CNC(=O)c1c(C)n(C(=O)CC(C)C)c2ccccc12 [Compound 329, N-((4-methoxy-6-methyl-2-oxo-1,2-dihydropyridin-3-yl)methyl)-2-methyl-1-(3-methylbutanoyl)-1H-indole-3-carboxamide]			0.1 to 1	0.1 to 1	
(±)-N-((6-(hydroxymethyl)-4-methoxy-2-oxo-1,2-dihydropyridin-3-yl)methyl)-1-(1-methoxypropan-2-yl)-2-methyl-1H-pyrrolo[2,3-b]pyridine-3-carboxamide [Compound 262]			0.1 to 1	1 to 10	
COc1ccccc1C(C)n1c(C)c(C(=O)NCc2c(C)cc(C)[nH]c2=O)c2ccccc21 (racemic) [Compound 186, (±)-N-((4,6-dimethyl-2-oxo-1,2-dihydropyridin-3-yl)methyl)-1-(1-(2-methoxyphenyl)ethyl)-2-methyl-1H-indole-3-carboxamide]	0.1 to 1	0.1 to 1			
Cc1cc(C)c(CNC(=O)c2c(C)n(-c3ccccc3)c3ccccc23)c(O)n1 [Compound 133, N-((2-hydroxy-4,6-dimethylpyridin-3-yl)methyl)-2-methyl-1-phenyl-1H-indole-3-carboxamide]			< 0.1	0.1 to 1	
CC[C@@H](C)n1c(C)c(C(=O)NCc2c(C)cc(C)nc2O)c2cnc(-c3ccccc3)nc21 [Compound 188, (R)-7-(sec-butyl)-N-((2-hydroxy-4,6-dimethylpyridin-3-yl)methyl)-6-methyl-2-phenyl-7H-pyrrolo [2,3-d]pyrimidine-5-carboxamide]			0.1 to 1	1 to 10	
Cc1cc(C)c(CNC(=O)c2c(C)n(C(C)Cn3cccn3)c3ncccc23)c(=O)[nH]1 (racemic) [Compound 221, (±)-1-(1-(1H-pyrazol-1-yl)propan-2-yl)-N-((4,6-dimethyl-2-oxo-1,2-dihydropyridin-3-yl)methyl)-2-methyl-1H-pyrrolo[2,3-b]pyridine-3-carboxamide]			0.1 to 1	1 to 10	
COCC(C)n1c(C)c(C(=O)NCc2c(OC)cc(C3CC3)[nH]c2=O)c2cccnc21 (racemic) [Compound 260, (±)-N-((6-cyclopropyl-4-methoxy-2-oxo-1,2-dihydropyridin-3-yl)methyl)-1-(1-methoxypropan-2-yl)-2-methyl-1H-pyrrolo[2,3-b]pyridine-3-carboxamide]	0.1 to 1	1 to 10			
COc1cc(C)[nH]c(=O)c1CNC(=O)c1c(C)n([C@H](C)[C@H](OC)C2CC2)c2ncccc12 (single isomer, unassigned) [Compound 285, 1-((1R or S, 2R or S)-1-cyclopropyl-1-methoxypropan-2-yl)-N-((4-methoxy-6-methyl-2-oxo-1,2-dihydropyridin-3-yl)methyl)-2-methyl-1H-pyrrolo[2,3-b]pyridine-3-carboxamide]	0.1 to 1	1 to 10			
Cc1cc(C)c(CNC(=O)c2cnn(-c3ccccc3)c2C)c(=O)[nH]1 [Compound 100, N-((4,6-dimethyl-2-oxo-1,2-dihydropyridin-3-yl)methyl)-5-methyl-1-phenyl-1H-pyrazole-4-carboxamide]			1 to 10	> 10	
COc1ncc2c(C(=O)NCc3c(C)cc(C)nc3O)c(C)n([C@H](C)c3ccccc3)c2n1 [Compound 141, (R)—N-((2-hydroxy-4,6-dimethylpyridin-3-yl)methyl)-2-methoxy-6-methyl-7-(1-phenylethyl)-7H-pyrrolo[2,3-d]pyrimidine-5-carboxamide]	0.1 to 1	1 to 10			
Cc1cc(C)c(CNC(=O)c2c(-c3ccccc3)n(C(C)c3ccccc3)c3ccccc23)c(O)n1 (single isomer, unassigned) [Compound 446, (R or S)-N-((2-hydroxy-4,6-dimethylpyridin-3-yl)methyl)-2-phenyl-1-(1-phenylethyl)-1H-indole-3-carboxamide]					EZH2 IC50 (EZH2 (rPRC2); wild-type EZH2 (rPRC2)): *(10 uM)
COc1nccc(C(C)n2c(C)c(C(=O)NCc3c(C)cc(C)[nH]c3=O)c3cccnc32)n1 (racemic) [Compound 233, (±)-N-((4,6-dimethyl-2-oxo-1,2-dihydropyridin-3-yl)methyl)-1-(1-(2-methoxypyrimidin-4-yl)ethyl)-2-methyl-1H-pyrrolo[2,3-b]pyridine-3-carboxamide]	0.1 to 1	1 to 10			
COc1cc(C)[nH]c(=O)c1CNC(=O)c1c(C)n([C@@H](C)c2ccccc2)c2ncccc12 [Compound 276, (S)-N-((4-methoxy-6-methyl-2-oxo-1,2-dihydropyridin-3-yl)methyl)-2-methyl-1-(1-phenylethyl)-1H-pyrrolo[2,3-b]pyridine-3-carboxamide]	< 0.1	< 0.1			
Cc1cc(C)c(CNC(=O)c2cnn(CCc3ccccc3)c2C)c(O)n1 [Compound 110, N-((2-hydroxy-4,6-dimethylpyridin-3-yl)methyl)-5-methyl-1-phenethyl-1H-pyrazole-4-carboxamide]					EZH2 IC50 (EZH2 (rPRC2); wild-type EZH2 (rPRC2)): *(10 μM); Y641N EZH2 IC50 (Y641N EZH2; Y641N mutant EZH2, H3K27Me2 oligonucleosome substrate): *(10 μM)
COc1cc(C)[nH]c(=O)c1CNC(=O)c1c(C)n(C(C)C(OC)C(F)(F)F)c2ncccc12 (centres unmarked) [Compound 312, N-((4-methoxy-6-methyl-2-oxo-1,2-dihydropyridin-3-yl)methyl)-2-methyl-1-(4,4,4-trifluoro-3-methoxybutan-2-yl)-1H-pyrrolo [2,3-b] pyridine-3-carboxamide]	0.1 to 1	0.1 to 1			
CC[C@@H](C)n1c(C)c(C(=O)NCc2c(C)cc(C)[nH]c2=O)c2cnc(Cl)nc21 [Compound 184, (R)-7-(sec-butyl)-2-chloro-N-((4,6-dimethyl-2-oxo-1,2-dihydropyridin-3-yl)methyl)-6-methyl-7H-pyrrolo[2,3-d]pyrimidine-5-carboxamide]	0.1 to 1	1 to 10			
COCC(C)n1c(C)c(C(=O)NCc2c(OC)cc(C)[nH]c2=O)c2ccc(N3CCNCC3)nc21 (racemic) [Compound 295, (±)-N-((4-methoxy-6-methyl-2-oxo-1,2-dihydropyridin-3-yl)methyl)-1-(1-methoxypropan-2-yl)-2-methyl-6-(piperazin-1-yl)-1H-pyrrolo[2,3-b]pyridine-3-carboxamide]			0.1 to 1	1 to 10	
COc1cc(C)[nH]c(=O)c1CNC(=O)c1c(C)n(C2CCN(C(=O)OC(C)(C)C)CC2)c2ccccc12 [Compound 331, tert-butyl 4-(3-(((4-methoxy-6-methyl-2-oxo-1,2-dihydropyridin-3-yl)methyl)carbamoyl)-2-methyl-1H-indol-1-yl)piperidine-1-carboxylate]	< 0.1	0.1 to 1			
Cc1cc(C)c(CNC(=O)c2cnn(C(C)c3ccccc3)c2C)c(O)n1 (single isomer, unassigned) [Compound 108, (R or S)—N-((2-hydroxy-4,6-dimethylpyridin-3-yl)methyl)-5-methyl-1-(1-phenylethyl)-1H-pyrazole-4-carboxamide]			> 10		
CCC(C)n1c(C)c(C(=O)NCc2c(C)cc(C)[nH]c2=O)c2cccnc21 (single isomer, unassigned) [Compound 196, (R or S)-1-(sec-butyl)-N-((4,6-dimethyl-2-oxo-1,2-dihydropyridin-3-yl)methyl)-2-methyl-1H-pyrrolo[2,3-b]pyridine-3-carboxamide]		0.1 to 1			
Cc1cc(C)c(CNC(=O)c2c(C)n(C(C)c3ccccc3)c3ncccc23)c(=O)[nH]1 (single isomer, unassigned) [Compound 117, N-((4,6-dimethyl-2-oxo-1,2-dihydropyridin-3-yl)methyl)-2-methyl-1-(1-phenylethyl)-1H-pyrrolo[2,3-b]pyridine-3-carboxamide]					IC50 (Y641N EZH2; read-out: Y641N EZH2 IC50, Y641N mutant EZH2, H3K27Me2 oligonucleosome substrate): 0.1 to 1 µM
COc1cc(C)[nH]c(=O)c1CNC(=O)c1c(C)n(C(C)c2ccccc2)c2ccccc12 (single isomer, unassigned) [Compound 115, (S or R)N-((4-methoxy-6-methyl-2-oxo-1,2-dihydropyridin-3-yl)methyl)-2-methyl-1-(1-phenylethyl)-1H-indole-3-carboxamide]					IC50 (EZH2 (rPRC2); read-out: EZH2 IC50, wild-type EZH2 (rPRC2)): < 0.1 µM

Source: patent US9371331B2, “Modulators of methyl modifying enzymes, compositions and uses thereof” (Constellation Pharmaceuticals, Inc., priority 2012, dated 2016)
